In assay [1] the test system is Mycobacterium tuberculosis H37Rv growth in 7H9 media. The experiment in a line: M. tuberculosis growth inhibition, dose response, H37Rv, 7H9 media, purified and synthesized compounds, set 4 (AID 504857). The note with it: for IC50: measured here: M. tuberculosis growth IC50.
Experiment in assay [2]: as above
To be noted: Mycobacterium tuberculosis H37Rv growth in 7H9 media; at 100 µM (top of the series).

SMILES strings stand for the structures. Activity calls are given as the source filed them. How the calls were made is not given here. A value given as a limit tells only on which side of the number the result lay.

For `O=C(CSc1nc2c(c(=O)[nH]1)CCC2)NC1CCCCC1`, in assay [1], the 90% effect concentration (IC90) is less than 0.01 µM and the concentration for half-maximal inhibition (IC50) was less than 0.01 µM.

Consider `Cc1cc(=O)[nH]c(SCC(=O)NC2CCCCC2)n1`, for which the growth inhibition in assay [2] was -5.77% (inactive).

In the case of `COc1cccc(NC(=O)CSc2nc3ccccc3c(=O)[nH]2)c1`, the growth inhibition in assay [2] was 7.54% (inactive).

Turning to `CCOC(=O)CSc1nc(C)c(C)c(=O)[nH]1`, the growth inhibition in assay [2] is 7.45% (inactive).

Regarding `CCSc1nc(C)c(C)c(=O)[nH]1`, the growth inhibition in assay [2] is 1.25% (inactive).

On to `O=C(CSc1nc2ccccc2c(=O)[nH]1)NC1CCCCC1`, for which, in assay [1], the concentration for an effect of 90% (IC90) is 0.4 µM and the IC50 is 0.25 µM.

With `CN(C)C(=O)CSc1nc2ccccc2c(=O)[nH]1`, the growth inhibition in assay [2] is 10.3% (inactive).

For the compound `Cc1ccc(NC(=O)COC(=O)CCc2c[nH]c3ccccc23)cc1[N+](=O)[O-]`, in assay [1], the IC90 was 4.68 µM and the IC50 is 2.55 µM.

As to `Cc1cccc(-c2oc3ccc(-c4ccc5c(c4)OCO5)cc3c2C#Cc2cncn2C)c1`, in assay [1], the concentration for an effect of 90% (IC90) was 3.13 µM and the half-inhibitory concentration (IC50) was 2.6 µM.

For `Cc1c[nH]c(=S)[nH]c1=O`, in assay [2], the growth inhibition was 2.29% (inactive).

Take `c1ccc(/N=C2\N=C(Nc3ccccn3)c3ccccc32)nc1`: in assay [1], the concentration for an effect of 90% (IC90) was 1.36 µM and the IC50 was found to be 1.03 µM.

As for `Cc1nc(SCC(=O)NCCC(C)C)[nH]c(=O)c1C`, in assay [1], the 90% effect concentration (IC90) was 9.97 µM and the half-inhibitory concentration (IC50) was 5.78 µM.

Take `Nc1c(C(=O)NC2CCCCC2)nsc1C(=O)OCC(=O)NC1CCCCC1`: the IC50 in assay [1] stood at 4.42 µM.

On to `CC[N+](C)(CC)CCCCOc1ccc2c(c1)C(=O)c1cc(OCCCC[N+](C)(CC)CC)ccc1-2`, for which, in assay [1], the 90% effect concentration (IC90) is 3.3 µM and the concentration for half-maximal inhibition (IC50) stood at 2.47 µM.

Turning to `CN(C(=O)CSc1nc2ccccc2c(=O)[nH]1)C1CCCCC1`, in assay [2], the growth inhibition was 4.85% (inactive).

As for `COC(=O)C(C)Oc1ccc(Cc2ncc(C(F)(F)F)cc2Cl)cc1` (stereo not drawn), in assay [1], the concentration for an effect of 90% (IC90) was 7.11 µM and the IC50 amounted to 4.4 µM.

In the case of `COc1cccc(NC(=O)CSc2nc3c(c(=O)[nH]2)CCC3)c1`, the growth inhibition in assay [2] is -2.55% (inactive).

Take `CCOc1ccc(-c2cc(C)[n+](CCc3ccc(OC)c(OC)c3)c(-c3ccc(OCC)cc3)c2)cc1`: in assay [1], the concentration for an effect of 90% (IC90) was 1.11 µM and the half-maximal inhibitory concentration (IC50) was 0.77 µM.

Take `Cc1cc(Br)ccc1NC(=O)c1cnc(N2CCN(c3ccccn3)CC2)c2ccccc12`: in assay [1], the 90% effect concentration (IC90) is 35 µM and the IC50 was 1.03 µM.

As for `O=c1[nH]c(SCc2ccccc2Cl)nc2c1CCCC2`, the growth inhibition in assay [2] was 9.36% (inactive).

Turning to `COC(=O)C(Nc1nc(SCC(=O)NC2CCCCC2)nc2ccccc12)c1ccccc1` (stereo not drawn), the growth inhibition in assay [2] was 0.63% (inactive).

Turning to `O=c1[nH]c(=S)[nH]c2ccccc12`, the growth inhibition in assay [2] was -2.47% (inactive).

As for `COc1ccc(NC(=O)CSc2nc3ccccc3c(=O)[nH]2)cc1`, the growth inhibition in assay [2] is 10.6% (inactive).

Regarding `CCOC1OC(=O)C(Cl)=C1Nc1ccccc1C` (stereo not drawn), in assay [1], the IC90 is 9.91 µM and the concentration for half-maximal inhibition (IC50) came out at 3.78 µM.

For `Cc1[nH]c2ccccc2c1C(=O)COC(=O)c1ccc([N+](=O)[O-])s1`, in assay [1], the IC90 was 2.93 µM and the half-maximal inhibitory concentration (IC50) is 1.69 µM.

For `O=C(CSc1nccc(=O)[nH]1)NC1CCCCC1`, the growth inhibition in assay [2] was 6.38% (inactive).

On to `CC(Sc1nc2ccccc2c(=O)[nH]1)C(=O)NC1CCCCC1` (stereo not drawn), for which the growth inhibition in assay [2] is 3.48% (inactive).

Regarding `Cc1cnc(SCC(=O)NC2CCCCC2)[nH]c1=O`, the growth inhibition in assay [2] is 4.36% (inactive).

As for `Cn1c(SCC(=O)NC2CCCCC2)nc2ccccc2c1=O`, in assay [2], the growth inhibition is 5.15% (inactive).

In the case of `O=C(CSc1nc2ccccc2c(=O)[nH]1)N1CCOCC1`, the growth inhibition in assay [2] was 6.76% (inactive).

`CC1CCN(C(=O)C2CCN(c3nnc(-n4cccc4)s3)CC2)CC1`: in assay [1], the IC90 is 4.87 µM and the IC50 was 2.79 µM.

For the compound `Cc1[nH]c(=S)[nH]c(=O)c1C`, the growth inhibition in assay [2] is 3.68% (inactive).

For the compound `Cc1nc(SCC(N)=O)[nH]c(=O)c1C`, in assay [2], the growth inhibition is 3.13% (inactive).

On to `NC(=O)CSc1nc2ccccc2c(=O)[nH]1`, for which the growth inhibition in assay [2] was 5.87% (inactive).

In the case of `CN1CCC(NC(=O)CSc2nc3ccccc3c(=O)[nH]2)CC1`, in assay [2], the growth inhibition is 4.15% (inactive).

On to `CC(C)CCNC(=O)CSc1nc2ccccc2c(=O)[nH]1`, for which, in assay [1], the 90% effect concentration (IC90) is 0.02 µM and the concentration for half-maximal inhibition (IC50) was less than 0.01 µM.

With `Cc1cc(C)n2nc(N)c(N=Nc3ccccc3)c2n1`, in assay [1], the concentration for an effect of 90% (IC90) is 6.31 µM and the IC50 worked out at 4.72 µM.

With `O=C(CSc1ncccn1)NC1CCCCC1`, the growth inhibition in assay [2] was -3.06% (inactive).

Regarding `Cc1ccc(C(=O)N/N=C(/CC(=O)c2cccs2)C(F)(F)F)cc1`, in assay [1], the 90% effect concentration (IC90) is 2.8 µM and the half-inhibitory concentration (IC50) was determined as 1.23 µM.

For the compound `CCC(Sc1nc2ccccc2c(=O)[nH]1)C(=O)NC1CCCCC1` (stereo not drawn), the growth inhibition in assay [2] was 0.65% (inactive).

`O=C(CSc1nc2c(c(=O)[nH]1)CCCC2)NC1CCCCC1`: in assay [1], the IC90 is less than 0.01 µM and the IC50 is less than 0.01 µM.

In the case of `Cc1cc(=O)[nH]c(=S)[nH]1`, the growth inhibition in assay [2] is -3.77% (inactive).

On to `COC(=O)c1ccc(CNc2c(N3CCCC3)c(=O)c2=O)cc1`, for which, in assay [2], the growth inhibition was 1.55% (inactive).

Regarding `CCC(Sc1nc2c(c(=O)[nH]1)CCC2)C(=O)Nc1cccc(OC)c1` (stereo not drawn), the growth inhibition in assay [2] is -2.13% (inactive).

With `Cc1nc(SCC(=O)N(C)c2ccccc2)[nH]c(=O)c1C`, the growth inhibition in assay [2] was -2.18% (inactive).

As to `Nc1cc(=O)[nH]c(SCC(=O)NC2CCCCC2)n1`, the growth inhibition in assay [2] is -0.79% (inactive).

As for `O=C(CSc1nc2ccccc2c(=O)[nH]1)NC1CCCC1`, in assay [1], the IC90 is 0.71 µM and the half-inhibitory concentration (IC50) was 0.24 µM.

As for `CNC(=O)CSc1nc2ccccc2c(=O)[nH]1`, in assay [1], the IC90 was 89.8 µM and the 50% inhibitory concentration (IC50) is 54.8 µM.

Consider `O=C(CSc1nc2ccccc2c(=O)[nH]1)NCc1ccc(Cl)cc1`, for which, in assay [1], the IC90 is 1.27 µM and the IC50 stood at 0.76 µM.

In the case of `CCC(Sc1nc2ccccc2c(=O)[nH]1)C(=O)Nc1cccc(OC)c1` (stereo not drawn), in assay [2], the growth inhibition was 18.9% (inactive).

Take `Cc1cccc(/C=C/C(=O)c2ccc([N+](=O)[O-])o2)c1`: in assay [1], the 90% effect concentration (IC90) is 1.12 µM and the half-inhibitory concentration (IC50) worked out at 0.67 µM.

For the compound `CC(C)CCNC(=O)CSc1nc2c(c(=O)[nH]1)CCC2`, in assay [1], the IC90 is 1.85 µM and the IC50 was 1.14 µM.

For the compound `O=C(CSc1ccccn1)NC1CCCCC1`, the growth inhibition in assay [2] is 5.02% (inactive).

As to `Cc1nc(SCC(=O)NC2CCCC2)[nH]c(=O)c1C`, in assay [1], the IC90 was 10.9 µM and the IC50 was 6.25 µM.

As to `CC(C)NC(=O)CSc1nc2ccccc2c(=O)[nH]1`, in assay [1], the 90% effect concentration (IC90) was 15.2 µM and the half-inhibitory concentration (IC50) amounted to 10.3 µM.

As for `Cc1nc(SCc2ccccc2Cl)[nH]c(=O)c1C`, in assay [2], the growth inhibition was -1.2% (inactive).

On to `Cc1ccc(NC(=O)CSc2nc3ccccc3c(=O)[nH]2)cc1Cl`, for which, in assay [2], the growth inhibition is 0.04% (inactive).

In the case of `CCSc1nc2ccccc2c(=O)[nH]1`, in assay [2], the growth inhibition is 2.57% (inactive).

In the case of `CC1CCN(C(=O)CSc2nc3ccccc3c(=O)[nH]2)CC1`, in assay [2], the growth inhibition was 2.61% (inactive).

(Values after PubChem BioAssay AID504857 (Southern Research Specialized Biocontainment Screening …, 2011).)
